This experiment concerns the target T1, NMDA receptor GRIN1/GRIN2B (NR2B) expressed in HEK293 cells (Homo sapiens, UniProt Q13224).
T1 construct: host or cells: HEK293
Description: Reversal of Ro 25-6981-mediated suppression of the Ca2+ response (fluo-8 fluorescence, FDSS) in HEK293 cells expressing GRIN1 and GRIN2B. It is filed as cell-based. The conditions noted are these: % reversal=100*(R−Rneg)/(Rpos−Rneg) of Ro 25-6981 suppression of co-agonist (glutamate/glycine) Ca2+ response, 10 min pre-incubation, compound concentration not given. Here is the method:
HEK293 cells with constructs conferring stable expression of the GRIN1 gene and tetracycline-inducible expression of the GRIN2B gene (Chantest, Cleveland, Ohio) are grown to ˜75% confluence in tissue culture flasks at 37° C., 5% CO2. NR2B expression is induced by overnight incubation with 0.3-0.4 μg/ml tetracycline in the presence of 2.5 mM ARL-15896 at 37° C., followed by moving to 30° C. for 3-5 hours. Cells are next harvested using TripleExpress™ (Life Technologies, Carlsbad, Calif.) according to the manufacturer's instructions, first removing culture medium, rinsing with Dulbecco's phosphate buffered saline (Ca^2+ and Mg^2+-free), and then adding the TripleExpress™ reagent. Harvested cells are spun down, washed twice in Ca^2+- and Mg^2+-free Hank's Balanced Salt Solution with 20 mM HEPES and 10 mM glucose, pH 7.4 (HHnoCa solution), and counted with viability assessed using Trypan Blue. Cells are loaded with fluo-8 Ca^2+-sensitive dye in HHnoCa solution according to the manufacturer's directions (AAT Bioquest, Sunnyvale, Calif.), incubating at 37° C. for 20 minutes followed by 25 minutes at 22-25° C. After a wash in HHnoCa to remove extracellular dye, cells are resuspended in HHnoCa and plated at […] cells per well in a volume of 25 μl/well in 384 well black-wall, clear bottom plates (Hamamatsu, Middlesex, N.J.). Plates are then centrifuged to create a monolayer in the wells and stored in the dark until used.
Prior to analysis, compound plates are prepared with each compound at 6× the final desired concentration. From stock solutions at 10 mM in 100% DMSO, compounds are spotted in the desired amounts using an ECHO liquid handler (Labcyte, Sunnyvale, Calif.) into wells of a 384-well plate and then diluted with 50 μl of HHnoCa containing 750 nM Ro 25-6981 and 120 μM 5,7-dichlorokynurenic acid (both purchased from Tocris Bioscience (Bristol, England) and maintained as 10 mM stock solutions in 100% DMSO). To insure complete compound dissolution, these plates are then placed in an orbital shaker for at least one hour. Also prepared prior to the assay is a co-agonist plate containing HHnoCa with 240 μM glutamate, 2.4 mM glycine, and 7.2 mM CaCl2, which is 2.4× the desired final concentration of each reagent. Both the compound plate and co-agonist plate are 384-well polypropylene plates from Thermo Fisher Scientific, Waltham, Mass.
The assay is performed by first adding 10 μl solution from each well of the compound plate described above to the cell plate using a CyBiWell liquid handler (Analytik Jena AG, Jena, Germany), followed by 10 minutes pre-incubation in the dark. Cell plates are then loaded onto a Hamamatsu FDSS 6000 plate reader. After a 30-second baseline, 25 μl is added to each well from the co-agonist plate, and the fluorescence signal is recorded for another 2 minutes. FDSS software applies shading and autofluorescence correction, and resultant raw fluorescence measurements are exported in the form of a fluorescence ratio for each well to its own reading at time zero in the experiment. In each plate, negative control wells consist of wells where Ro 25-6981 and 5,7 dichlorokynurenic acid are present and co-agonist is applied in the absence of any added assay compound. Under these conditions, the Ca^2+ response to co-agonist is suppressed. Positive control wells also present in each plate contain 5,7 dichlorokynurenic acid but no Ro 25-6981, so that co-agonist addition results in a large Ca^2+ response. Compounds tested are evaluated on the basis of their ability to reverse the suppression of the Ca^2+ response mediated by Ro 25-6981, which is quantified as % reversal=100*(R−Rneg)/(Rpos−Rneg) where R is the fluorescence ratio for the test compound at the end of the experiment and Rneg and Rpos are the end ratios for the negative and positive controls, respectively. […]

Structures are written as SMILES.

T1 sequence (Q13224 27-1484, other chains not shown): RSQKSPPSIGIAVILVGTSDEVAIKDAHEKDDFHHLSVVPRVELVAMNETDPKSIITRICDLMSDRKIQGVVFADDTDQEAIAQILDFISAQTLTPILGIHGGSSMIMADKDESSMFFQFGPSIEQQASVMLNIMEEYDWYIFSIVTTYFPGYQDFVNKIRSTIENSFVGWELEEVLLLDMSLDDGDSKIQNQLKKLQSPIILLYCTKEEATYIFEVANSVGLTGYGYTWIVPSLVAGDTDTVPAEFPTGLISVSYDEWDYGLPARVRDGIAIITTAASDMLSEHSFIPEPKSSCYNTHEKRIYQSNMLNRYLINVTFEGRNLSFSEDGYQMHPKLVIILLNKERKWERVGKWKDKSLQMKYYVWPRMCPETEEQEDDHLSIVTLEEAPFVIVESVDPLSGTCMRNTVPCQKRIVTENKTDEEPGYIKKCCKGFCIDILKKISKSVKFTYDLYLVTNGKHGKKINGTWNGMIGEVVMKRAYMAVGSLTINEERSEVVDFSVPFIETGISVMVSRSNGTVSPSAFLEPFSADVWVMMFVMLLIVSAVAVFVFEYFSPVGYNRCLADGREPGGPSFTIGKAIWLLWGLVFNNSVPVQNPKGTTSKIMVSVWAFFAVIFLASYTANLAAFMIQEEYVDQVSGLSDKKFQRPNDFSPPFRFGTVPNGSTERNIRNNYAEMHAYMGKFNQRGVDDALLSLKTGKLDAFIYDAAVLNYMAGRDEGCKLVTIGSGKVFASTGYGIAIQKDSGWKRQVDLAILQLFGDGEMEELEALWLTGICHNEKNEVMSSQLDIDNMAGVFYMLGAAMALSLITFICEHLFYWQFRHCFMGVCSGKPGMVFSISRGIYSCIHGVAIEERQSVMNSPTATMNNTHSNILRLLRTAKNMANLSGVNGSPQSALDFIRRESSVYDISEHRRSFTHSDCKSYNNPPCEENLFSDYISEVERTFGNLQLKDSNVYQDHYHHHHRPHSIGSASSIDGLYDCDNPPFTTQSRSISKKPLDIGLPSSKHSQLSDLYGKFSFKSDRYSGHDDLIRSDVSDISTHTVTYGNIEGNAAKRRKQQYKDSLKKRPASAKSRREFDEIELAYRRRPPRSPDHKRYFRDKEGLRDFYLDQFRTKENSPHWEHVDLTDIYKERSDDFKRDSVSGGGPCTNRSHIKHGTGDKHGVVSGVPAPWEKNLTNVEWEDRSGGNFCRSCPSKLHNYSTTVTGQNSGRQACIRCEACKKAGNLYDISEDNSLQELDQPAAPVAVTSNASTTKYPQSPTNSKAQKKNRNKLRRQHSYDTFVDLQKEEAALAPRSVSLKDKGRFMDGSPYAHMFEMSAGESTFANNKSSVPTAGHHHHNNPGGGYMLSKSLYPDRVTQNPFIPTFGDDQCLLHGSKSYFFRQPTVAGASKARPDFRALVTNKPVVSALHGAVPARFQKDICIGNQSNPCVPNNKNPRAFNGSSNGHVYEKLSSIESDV

For the molecule `O=C(Cn1cnc2scc(-c3ccc(F)c(F)c3)c2c1=O)N1CCCC1` [Example 42, 5-(3,4-difluorophenyl)-3-[2-oxo-2-(pyrrolidin-1-yl)ethyl]-3H,4H-thieno[2,3-d]pyrimidin-4-one], the “Response Recovered (%)” value is reported as 3%.
The figure for `Cc1sc2ncn(CC(=O)N3CCCC3)c(=O)c2c1-c1ccc(F)c(Cl)c1` [Example 83, 5-(3-chloro-4-fluorophenyl)-6-methyl-3-[2-oxo-2-(pyrrolidin-1-yl)ethyl]-3H,4H-thieno[2,3-d]pyrimidin-4-one] is 45%; for `O=C(Cn1cnc2scc(-c3cccc(OC(F)(F)F)c3)c2c1=O)N1CCCC1` [Example 51, 3-[2-oxo-2-(pyrrolidin-1-yl)ethyl]-5-[3-(trifluoromethoxy)phenyl]-3H,4H-thieno└2,3-d┘pyrimidin-4-one] it is 27%; for `CN1CCC(NC(=O)Cn2cnc3scc(-c4ccc(Cl)cc4)c3c2=O)C1` (centres unmarked) [Example 7, 2-[5-(4-chlorophenyl)-4-oxo-3H,4H-thieno[2,3-d]pyrimidin-3-yl]-N-(1-methylpyrrolidin-3-yl)acetamide] it is 3%.
As to `O=C(Cn1cnc2scc(-c3ccc(C(F)(F)F)cc3)c2c1=O)N1CCCC1` [Example 17, 3-[2-oxo-2-(pyrrolidin-1-yl)ethyl]-5-[4-(trifluoromethyl)phenyl]-3H,4H-thieno[2,3-d]pyrimidin-4-one], the “Response Recovered (%)” value worked out at 11%.
Take `Cc1sc2ncn(CC(=O)N3CCCC3)c(=O)c2c1-c1ccc(Cl)c(Cl)c1` [Example 84, 5-(3,4-dichlorophenyl)-6-methyl-3-[2-oxo-2-(pyrrolidin-1-yl)ethyl]-3H,4H-thieno[2,3-d]pyrimidin-4-one]: the “Response Recovered (%)” value came out at 60%.
Consider `O=C(Cn1cnc2scc(-c3ccc(Cl)cc3)c2c1=O)N1CCCCC1` [Example 8, 5-(4-chlorophenyl)-3-[2-oxo-2-(piperidin-1-yl)ethyl]-3H,4H-thieno[2,3-d]pyrimidin-4-one], for which the “Response Recovered (%)” value is 3%.
As for `O=C(Cn1cnc2scc(-c3cnc(Cl)c(C(F)(F)F)c3)c2c1=O)N1CCC(F)C1` (centres unmarked) [Example 70, 5-[6-chloro-5-(trifluoromethyl)pyridin-3-yl]-3-[2-(3-fluoropyrrolidin-1-yl)-2-oxoethyl]-3H,4H-thieno[2,3-d]pyrimidin-4-one], the “Response Recovered (%)” value came out at 22%.
Turning to `Cc1nc2scc(-c3ccc(Cl)cc3)c2c(=O)n1CC(=O)N1CCCC1C(F)(F)F` (centres unmarked) [Example 99, 5-(4-chlorophenyl)-2-methyl-3-{2-oxo-2-[2-(trifluoromethyl)pyrrolidin-1-yl]ethyl}-3H,4H-thieno[2,3-d]pyrimidin-4-one], the “Response Recovered (%)” value was 3%.
For `O=C(Cn1cnc2sc(-c3ccc(Cl)cc3)cc2c1=O)N1CCC(F)(F)CC1` [Example 78, 6-(4-chlorophenyl)-3-[2-(4,4-difluoropiperidin-1-yl)-2-oxoethyl]-3H,4H-thieno└2,3-d┘pyrimidin-4-one], the “Response Recovered (%)” value was 13%.
The figure for `Cc1sc2ncn(CC(=O)N3CCCC3)c(=O)c2c1-c1ccc(Cl)c(C(F)(F)F)c1` [Example 82, 5-[4-chloro-3-(trifluoromethyl)phenyl]-6-methyl-3-[2-oxo-2-(pyrrolidin-1-yl)ethyl]-3H,4H-thieno[2,3-d]pyrimidin-4-one] is 15%; for `O=C(Cn1cnc2scc(-c3ccc(C(F)(F)F)cc3Cl)c2c1=O)N1CCCC1` [Example 43, 5-[2-chloro-4-(trifluoromethyl)phenyl]-3-[2-oxo-2-(pyrrolidin-1-yl)ethyl]-3H,4H-thieno[2,3-d]pyrimidin-4-one] it is 8%; for `COc1ccc(-c2csc3ncn(CC(=O)N4CCCC4)c(=O)c23)cc1` [Example 41, 5-(4-methoxyphenyl)-3-[2-oxo-2-(pyrrolidin-1-yl)ethyl]-3H,4H-thieno[2,3-d]pyrimidin-4-one] it is 5%.
`O=C(Cn1cnc2scc(-c3ccc(Cl)cc3)c2c1=O)N1CCC(O)C1` (centres unmarked) [Example 6, 5-(4-chlorophenyl)-3-[2-(3-hydroxypyrrolidin-1-yl)-2-oxoethyl]-3H,4H-thieno[2,3-d]pyrimidin-4-one]: the “Response Recovered (%)” value was determined as 3%.
In the case of `O=C(COn1cnc2scc(-c3ccc(F)c(Cl)c3)c2c1=O)N1CCCC1` [Example 93, 5-(3-chloro-4-fluorophenyl)-3-[2-oxo-2-(pyrrolidin-1-yl)ethoxy]-3H,4H-thieno┌2,3-d┐pyrimidin-4-one], the “Response Recovered (%)” value is listed as −1%.
`CN(C)/C=N/n1cnc2scc(-c3ccc(Cl)c(C(F)(F)F)c3)c2c1=O` [Example 100, (E)-N′-(5-(4-chloro-3-(trifluoromethyl)phenyl)-4-oxothieno[2,3-d]pyrimidin-3(4H)-yl)-N,N-dimethylformimidamide]: the “Response Recovered (%)” value is reported as 14%.
The figure for `O=C(Cn1cnc2scc(-c3ccc(Cl)c(C(F)(F)F)c3)c2c1=O)N1CC[C@H](F)C1` [Example 65, 5-[4-chloro-3-(trifluoromethyl)phenyl]-3-{2-[(3S)-3-fluoropyrrolidin-1-yl]-2-oxoethyl}-3H,4H-thieno[2,3-d]pyrimidin-4-one] is 87%; for `O=C(On1cnc2scc(-c3ccc(Cl)c(C(F)(F)F)c3)c2c1=O)N1CCCC1` [Example 85, 5-(4-chloro-3-(trifluoromethyl)phenyl)-4-oxothieno[2,3-d]pyrimidin-3(4H)-yl pyrrolidine-1-carboxylate] it is 51%; for `O=C(Cn1cnc2scc(-c3ccc(Cl)cc3)c2c1=O)N1CCCC1C(F)(F)F` (centres unmarked) [Example 11, 5-(4-chlorophenyl)-3-{2-oxo-2-[2-(trifluoromethyl)pyrrolidin-1-yl]ethyl}-3H,4H-thieno[2,3-d]pyrimidin-4-one] it is 8%.
As for `O=C(Cn1cnc2scc(-c3ccc(F)c(C(F)(F)F)c3)c2c1=O)N1CCC(F)C1` (centres unmarked) [Example 61], the “Response Recovered (%)” value was 83%.
`O=C(Cn1cnc2scc(-c3ccc(OC(F)(F)F)cc3)c2c1=O)N1CCCC1` [Example 34, 3-[2-oxo-2-(pyrrolidin-1-yl)ethyl]-5-[4-(trifluoromethoxy)phenyl]-3H,4H-thieno[2,3-d]pyrimidin-4-one]: the “Response Recovered (%)” value amounted to 16%.
As for `O=C(Cn1cnc2scc(-c3ccc(C(F)(F)F)cc3F)c2c1=O)N1CCCC1` [Example 38], the “Response Recovered (%)” value came to 10%.
`O=C(On1cnc2scc(-c3ccc(Cl)c(F)c3)c2c1=O)N1CCCC1` [Example 87, 5-(4-chloro-3-fluorophenyl)-4-oxo-3H,4H-thieno[2,3-d]pyrimidin-3-yl pyrrolidine-1-carboxylate]: the “Response Recovered (%)” value was determined as 32%.
`O=C(Cn1cnc2scc(-c3ccc(Cl)cc3)c2c1=O)N1CCC(F)C1` (centres unmarked) [Example 16, 5-(4-chlorophenyl)-3-[2-(3-fluoropyrrolidin-1-yl)-2-oxoethyl]-3H,4H-thieno[2,3-d]pyrimidin-4-one]: the “Response Recovered (%)” value was 21%.
To `O=C(On1cnc2scc(-c3ccc(F)c(Cl)c3)c2c1=O)N1CCCC1` [Example 86, 5-(3-chloro-4-fluorophenyl)-4-oxo-3H,4H-thieno[2,3-d]pyrimidin-3-yl pyrrolidine-1-carboxylate] belongs 48%; to `N#Cc1ccc(-c2csc3ncn(CC(=O)N4CCCC4)c(=O)c23)cc1` [Example 32, 4-{4-oxo-3-[2-oxo-2-(pyrrolidin-1-yl)ethyl]-3H,4H-thieno[2,3-d]pyrimidin-5-yl}benzonitrile], 2%.

The values are drawn from US11541057B2, “Thienopyrimidinone NMDA receptor modulators and uses thereof” (Cadent Therapeutics, Inc., priority 2015, dated 2023).
